Results as given in article PMC6886544.
“And” between values parts separate entries of the source, which are not always exact repeats. Identical values can stand only once. Each block holds one molecule with its values, some of them ahead of it.

Experiments:
[1] = molecular target: ErbB4 (Homo sapiens, UniProt Q15303); assay: SelectScreen kinase profiling, ErbB4; assay type: biochemical; settings: mean ± SD of one measurement in duplicates
Method: (§1) Kinase profiling of compound 17a at a concentration of 1 µM generated with the SelectScreen® Profiling Service from Life Technologies.
(§2) Figure S2. Kinase profiling of compound 17a, Illustration as waterfall plot. 9 Kinases harboring a Cysteine isostructural to Cys797 in EGFR are highlighted
(§3) Kinase % inhibition Kinase % inhibition […]
(§4) aValues are the mean ± SD of one measurement in duplicates; bKinases harboring a Cysteine isostructural to Cys797 […]
(§5) (1 picture or pasted object on this page, not shown here)

[2] = molecular target: FGFR2 (Homo sapiens, UniProt P21802); assay: SelectScreen kinase profiling, FGFR2; assay type: biochemical; settings: mean ± SD of one measurement in duplicates
Chain of FGFR2 (P21802 22-821): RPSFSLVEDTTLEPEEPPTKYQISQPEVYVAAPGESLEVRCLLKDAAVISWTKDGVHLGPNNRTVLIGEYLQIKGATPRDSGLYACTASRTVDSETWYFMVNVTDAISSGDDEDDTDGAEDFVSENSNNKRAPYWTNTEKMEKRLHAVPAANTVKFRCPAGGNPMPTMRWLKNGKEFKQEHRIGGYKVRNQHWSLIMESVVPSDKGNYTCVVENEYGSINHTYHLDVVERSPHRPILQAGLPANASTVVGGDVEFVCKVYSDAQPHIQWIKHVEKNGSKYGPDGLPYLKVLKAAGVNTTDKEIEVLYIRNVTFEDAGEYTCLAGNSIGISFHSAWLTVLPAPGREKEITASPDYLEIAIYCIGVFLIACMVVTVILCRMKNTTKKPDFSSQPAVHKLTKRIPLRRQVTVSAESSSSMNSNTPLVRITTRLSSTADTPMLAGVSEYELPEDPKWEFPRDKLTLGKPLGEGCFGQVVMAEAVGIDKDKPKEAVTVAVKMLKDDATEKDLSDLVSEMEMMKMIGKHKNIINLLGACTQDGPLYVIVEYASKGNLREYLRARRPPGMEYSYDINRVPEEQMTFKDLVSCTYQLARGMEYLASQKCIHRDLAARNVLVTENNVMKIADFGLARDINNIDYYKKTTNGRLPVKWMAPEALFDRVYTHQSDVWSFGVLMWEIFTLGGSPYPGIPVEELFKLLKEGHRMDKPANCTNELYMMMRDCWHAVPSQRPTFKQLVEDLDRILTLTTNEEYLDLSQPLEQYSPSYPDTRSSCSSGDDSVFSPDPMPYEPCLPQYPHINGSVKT
Method: as §1, §2, §3, §4, §5

[3] = molecular target: TXK (Homo sapiens, UniProt P42681); assay: SelectScreen kinase profiling, TXK; assay type: biochemical; settings: mean ± SD of one measurement in duplicates
Chain of TXK (P42681 whole entry): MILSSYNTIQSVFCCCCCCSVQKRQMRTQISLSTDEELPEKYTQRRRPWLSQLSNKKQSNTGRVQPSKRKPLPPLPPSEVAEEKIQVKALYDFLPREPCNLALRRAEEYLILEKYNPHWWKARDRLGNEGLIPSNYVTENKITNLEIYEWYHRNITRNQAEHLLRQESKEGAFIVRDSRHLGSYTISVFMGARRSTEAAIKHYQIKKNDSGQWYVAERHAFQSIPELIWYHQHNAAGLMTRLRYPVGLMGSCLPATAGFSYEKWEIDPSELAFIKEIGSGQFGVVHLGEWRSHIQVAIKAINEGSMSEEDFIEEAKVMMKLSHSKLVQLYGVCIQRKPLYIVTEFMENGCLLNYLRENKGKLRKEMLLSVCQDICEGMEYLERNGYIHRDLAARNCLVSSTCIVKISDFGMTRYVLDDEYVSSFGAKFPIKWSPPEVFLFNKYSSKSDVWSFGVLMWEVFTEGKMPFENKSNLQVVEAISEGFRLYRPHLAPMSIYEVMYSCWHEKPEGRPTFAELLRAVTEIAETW
Method: as §1, §2, §3, §4, §5

[4] = In vivo pharmacokinetics in mice
Method: In vivo pharmacokinetics.
To determine the pharmacokinetics of 19h, totally 36 male RjOrl:SWISS (CD1) mice, age 8−10 weeks, body weight (bw) between 29 and 31 g, were purchased from Janvier, Saint-Berthevin Cedex, France. Mice were fed ad libitum with Allein-Futter für Ratten-/Mäusehaltung from Sniff Special Diets GmbH, Germany. They had free access to water and were kept in a 12 h day/night rhythm. All experiments were approved by the local authorities. Pharmacokinetics were studied for the oral (PO), intraperitoneal (IP), and intravenous (IV) route of administration. For the oral and […]
intraperitoneal routes, a stock solution of 2 mg/mL of 19h in a solution consisting of 10% of DMSO and to 90% of an aqueous solution of 30% 2-hydroxypropyl-β-cyclodextrin was prepared. To reach doses of 20 mg/kg bw, 300 μL were administered per 30 g of mouse bw. For the intravenous route of administration, a 2 mg/mL DMSO solution was prepared and 30 μL were applied to a 30 g mouse to reach a concentration of 2 mg/kg bw. Mice were sacrificed 5, 15, 45, and 135 min after administration of the test compound, and approximately 100 μL of blood was taken from the left heart chamber. Three mice were analyzed per time point and route of administration (PO, IP and IV), respectively. Immediately after sampling, blood was centrifuged at 16200g for 10 min at 4 °C and plasma was stored at -80 °C until LC/MS analysis of 19h. Prior to LC-MS/MS analysis, plasma proteins were precipitated with acetonitrile containing an internal standard, and samples were filtered. A calibration curve was obtained from spiked blank plasma samples. 19h was measured using a Shimadzu UPLC system connected to a QTrap 4000 hybrid triple quadrupole/linear ion trap mass spectrometer (AB Sciex). The regression equation of the calibration curve was used to calculate plasma concentrations. Pharmacokinetic parameters were calculated using the PKSolver software2.

[5] = Plasma protein binding, human; assay type: in vitro ADME; settings: equilibrium dialysis, 37 °C
Method: Assessment of plasma protein binding was measured by equilibrium dialysis by incubating plasma
based determination of final compound concentrations. […]

[6] = Plasma stability, human; assay type: in vitro ADME; settings: 5 µM, 1 h, 37 °C
[7] = male, RjOrl:SWISS (CD1), mouse, plasma, IP 20 mg kg-1
[8] = male, RjOrl:SWISS (CD1), mouse, plasma, IP 20 mg kg^–1
[9] = male, RjOrl:SWISS (CD1), mouse, plasma, IV 2 mg kg-1
[10] = male, RjOrl:SWISS (CD1), mouse, plasma, PO 20 mg kg-1

Chain of ErbB4 (Q15303 26-1308): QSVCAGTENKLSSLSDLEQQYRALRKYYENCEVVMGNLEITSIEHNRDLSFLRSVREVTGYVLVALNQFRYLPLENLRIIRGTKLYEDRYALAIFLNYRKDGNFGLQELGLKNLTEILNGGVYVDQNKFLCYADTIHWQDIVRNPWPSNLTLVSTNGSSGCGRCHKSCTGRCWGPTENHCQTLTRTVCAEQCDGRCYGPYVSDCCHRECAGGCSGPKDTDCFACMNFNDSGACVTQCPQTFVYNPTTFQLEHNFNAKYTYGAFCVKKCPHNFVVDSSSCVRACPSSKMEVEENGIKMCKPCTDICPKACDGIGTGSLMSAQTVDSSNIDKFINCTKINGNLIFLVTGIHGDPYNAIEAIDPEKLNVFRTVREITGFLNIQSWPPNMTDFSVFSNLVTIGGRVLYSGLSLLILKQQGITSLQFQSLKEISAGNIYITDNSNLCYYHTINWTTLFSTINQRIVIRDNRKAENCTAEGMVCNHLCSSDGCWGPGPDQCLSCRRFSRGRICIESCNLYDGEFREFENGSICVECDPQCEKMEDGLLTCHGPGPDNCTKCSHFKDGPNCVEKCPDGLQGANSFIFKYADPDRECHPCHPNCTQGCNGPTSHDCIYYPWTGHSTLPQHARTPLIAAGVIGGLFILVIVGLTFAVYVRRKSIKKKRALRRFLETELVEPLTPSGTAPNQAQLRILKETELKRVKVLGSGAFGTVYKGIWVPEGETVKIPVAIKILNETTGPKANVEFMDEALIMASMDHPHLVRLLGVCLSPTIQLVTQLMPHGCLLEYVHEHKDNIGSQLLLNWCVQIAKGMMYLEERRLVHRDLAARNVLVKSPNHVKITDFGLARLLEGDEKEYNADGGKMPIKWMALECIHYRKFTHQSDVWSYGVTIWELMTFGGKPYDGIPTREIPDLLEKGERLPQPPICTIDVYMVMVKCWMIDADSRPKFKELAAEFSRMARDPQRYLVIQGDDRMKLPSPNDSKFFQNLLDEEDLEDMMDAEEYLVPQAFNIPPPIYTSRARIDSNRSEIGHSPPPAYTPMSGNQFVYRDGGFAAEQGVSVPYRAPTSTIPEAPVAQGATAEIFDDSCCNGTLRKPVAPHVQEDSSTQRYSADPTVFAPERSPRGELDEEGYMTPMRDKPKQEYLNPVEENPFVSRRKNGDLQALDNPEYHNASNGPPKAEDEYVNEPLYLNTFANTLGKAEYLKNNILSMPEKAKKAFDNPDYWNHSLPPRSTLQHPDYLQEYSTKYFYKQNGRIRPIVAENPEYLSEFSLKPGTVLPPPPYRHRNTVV

inhibition at 1 µM [1]: 100 ± 1% | inhibition at 1 µM [2]: 76 ± 1% | inhibition at 1 µM [3]: 77%
Structure (SMILES): C=CC(=O)Nc1cccc(-c2c(-c3ccc(CN4CCN(C)CC4)cc3)[nH]c3ncnc(OC)c23)c1 [Compound 17a]

F0-t ([4]; IP 20 mg kg-1): 258% | t1/2 ([4]; IP 20 mg kg-1): 1.2 h | Cmax, free ([4]; IP 20 mg kg^–1): 0.012 µM | F0-t ([4]; PO 20 mg kg-1): 9% | time blood plasma concentration maintained above in vitro EC50 in H1975 cells ([4]; after both IP and PO): more than two hours | AUC(0-t) [4, 7]: 2870 ng·h/mL | Cmax [4, 7]: 1770 ng/mL | AUC [4, 8]: 8.6 ng·h/mL | Cmax [4, 8]: 3.5 µM | AUC(0-t) [4, 9]: 111 ng·h/mL | C0 [4, 9]: 258 ng/mL | clearance [4, 9]: 250 mL/min/kg | Vd ([4]; male, RjOrl:SWISS (CD1), mouse, plasma, IV 2 mg kg-1, read-out: Vss): 16 L/kg | AUC(0-t) [4, 10]: 101 ng·h/mL | Cmax [4, 10]: 56 ng/mL | half-life ([4]; male, RjOrl:SWISS (CD1), mouse, plasma, ip, 20 mg/kg, IP 20 mg kg-1): 72.6 min | half-life ([4]; male, RjOrl:SWISS (CD1), mouse, plasma, iv, 2 mg/kg, IV 2 mg kg-1): 53.4 min | fraction unbound at 6 h, 5 µM [5]: 0.001 | Plasma stability [6]: 99 %remain and 100 %remain
Structure (SMILES): C=CC(=O)Nc1cccc(-c2c(-c3ccc(N4CCN(C)CC4)cc3)[nH]c3ncnc(OCC(C)C)c23)c1 [Compound 19h]
